Source: ChEMBL document CHEMBL3885881, “DrugMatrix”

Species on record: Rattus norvegicus
Assay: DrugMatrix - Regimen: Daily Repeat
Type: toxicity, organism-based, Sprague-Dawley
Parameters: regimen Daily Repeat, gender Male, age 6-8 weeks
Conditions: in vivo, po, route oral GAVAGE, […]; for ABSOLUTE BASOPHIL / ABSOLUTE EOSINOPHIL / ABSOLUTE LYMPHOCYTE / ABSOLUTE MONOCYTE / ABSOLUTE SEGMENTED NEUTROPHIL / BASOPHIL / EOSINOPHIL / ERYTHROCYTE COUNT / HEMATOCRIT / HEMOGLOBIN / LEUKOCYTE COUNT / LYMPHOCYTE / MEAN CORPUSCULAR HEMOGLOBIN / MEAN CORPUSCULAR HEMOGLOBIN CONCENTRATION / MEAN CORPUSCULAR VOLUME / MONOCYTE / NEUTROPHIL / NUCLEATED RED BLOOD CELLS / PLATELET COUNT: tissue Blood; for ALANINE AMINOTRANSFERASE / ALBUMIN / ALKALINE PHOSPHATASE / ASPARTATE AMINOTRANSFERASE / BLOOD UREA NITROGEN / CARBON DIOXIDE / CHLORIDE / CHOLESTEROL / CREATINE PHOSPHOKINASE / CREATININE / GLUCOSE / LACTATE DEHYDROGENASE / LIPASE / PHOSPHORUS / POTASSIUM / SODIUM / TOTAL BILIRUBIN / TOTAL PROTEIN / URIC ACID: tissue Plasma
[1] = 3 mg/kg, 72 h, dose level Low, time 3 day
[2] = 3 mg/kg, 120 h, dose level Low, time 5 day
[3] = 250 mg/kg, 72 h, dose level High, time 3 day
[4] = 250 mg/kg, 120 h, dose level High, time 5 day

With N#Cc1ccc(C(c2ccc(C#N)cc2)n2cncn2)cc1 [LETROZOLE] the “ABSOLUTE BASOPHIL” value [1] was 0 CELLS/uL, the “ABSOLUTE EOSINOPHIL” value [1] was 184 CELLS/uL and the “ABSOLUTE LYMPHOCYTE” value [1] was 10672.33 CELLS/uL. The “ABSOLUTE MONOCYTE” value [1] was 0 CELLS/uL, the “ABSOLUTE SEGMENTED NEUTROPHIL” value [1] was 1877 CELLS/uL and the BASOPHIL [1] was 0%. The EOSINOPHIL [1] was 0.67%, the “ERYTHROCYTE COUNT” value [1] was 4.51 x10E6/uL and the HEMATOCRIT [1] was 28.03%. The HEMOGLOBIN [1] was 11.33 G/DL, the “LEUKOCYTE COUNT” value [1] was 12.73 x10E3/uL and the LYMPHOCYTE [1] was 88.67%. For the same compound, the “MEAN CORPUSCULAR HEMOGLOBIN” value [1] was 25.07 pg, the “MEAN CORPUSCULAR HEMOGLOBIN CONCENTRATION” value [1] was 40.37 G/DL and the “MEAN CORPUSCULAR VOLUME” value [1] was 62.1 fL. For the same compound, the MONOCYTE [1] was 0%, the NEUTROPHIL [1] was 10.67% and the “NUCLEATED RED BLOOD CELLS” value [1] was 0 /100WBC. For the same compound, the “PLATELET COUNT” value [1] was 541.33 x10E3/uL, the “ALANINE AMINOTRANSFERASE” value [1] was 85.67 u/L and the ALBUMIN [1] was 4.07 G/DL. For the same compound, the “ALKALINE PHOSPHATASE” value [1] was 351.67 u/L, the “ASPARTATE AMINOTRANSFERASE” value [1] was 114.67 u/L and the “BLOOD UREA NITROGEN” value [1] was 15 mg/dL. For the same compound, the “CARBON DIOXIDE” value [1] was 26.67 mmol/L, the CHLORIDE [1] was 105 MEQ/L and the CHOLESTEROL [1] was 72.33 mg/dL. For the same compound, the “CREATINE PHOSPHOKINASE” value [1] was 577.67 u/L, the CREATININE [1] was 0.17 mg/dL and the GLUCOSE [1] was 196.67 mg/dL. For the same compound, the “LACTATE DEHYDROGENASE” value [1] was 171.67 u/L, the LIPASE [1] was 8.33 u/L and the PHOSPHORUS [1] was 13.4 mg/dL. The POTASSIUM [1] was 5.91 MEQ/L, the SODIUM [1] was 144 MEQ/L and the “TOTAL BILIRUBIN” value [1] was 0.2 mg/dL. For the same compound, the “TOTAL PROTEIN” value [1] was 5.4 G/DL, the “URIC ACID” value [1] was 1.37 mg/dL and the “ABSOLUTE BASOPHIL” value [2] was 0 CELLS/uL. For the same compound, the “ABSOLUTE EOSINOPHIL” value [2] was 0 CELLS/uL, the “ABSOLUTE LYMPHOCYTE” value [2] was 13516.33 CELLS/uL and the “ABSOLUTE MONOCYTE” value [2] was 50.67 CELLS/uL. For the same compound, the “ABSOLUTE SEGMENTED NEUTROPHIL” value [2] was 1033 CELLS/uL, the BASOPHIL [2] was 0% and the EOSINOPHIL [2] was 0%. The “ERYTHROCYTE COUNT” value [2] was 5.59 x10E6/uL, the HEMATOCRIT [2] was 35.97% and the HEMOGLOBIN [2] was 14.1 G/DL. The “LEUKOCYTE COUNT” value [2] was 14.6 x10E3/uL, the LYMPHOCYTE [2] was 92.67% and the “MEAN CORPUSCULAR HEMOGLOBIN” value [2] was 25.23 pg. For the same compound, the “MEAN CORPUSCULAR HEMOGLOBIN CONCENTRATION” value [2] was 39.17 G/DL, the “MEAN CORPUSCULAR VOLUME” value [2] was 64.33 fL and the MONOCYTE [2] was 0.33%. The NEUTROPHIL [2] was 7%, the “NUCLEATED RED BLOOD CELLS” value [2] was 0 /100WBC and the “PLATELET COUNT” value [2] was 1165 x10E3/uL. The “ALANINE AMINOTRANSFERASE” value [2] was 55 u/L, the ALBUMIN [2] was 4.23 G/DL and the “ALKALINE PHOSPHATASE” value [2] was 407 u/L. The “ASPARTATE AMINOTRANSFERASE” value [2] was 79.33 u/L, the “BLOOD UREA NITROGEN” value [2] was 18 mg/dL and the “CARBON DIOXIDE” value [2] was 27.67 mmol/L. The CHLORIDE [2] was 103 MEQ/L, the CHOLESTEROL [2] was 69.33 mg/dL and the “CREATINE PHOSPHOKINASE” value [2] was 252.67 u/L. For the same compound, the CREATININE [2] was 0.22 mg/dL, the GLUCOSE [2] was 176 mg/dL and the “LACTATE DEHYDROGENASE” value [2] was 155.33 u/L. It also gave an LIPASE [2] of 11.33 u/L, a PHOSPHORUS [2] of 11.3 mg/dL and a POTASSIUM [2] of 6.08 MEQ/L. For the same compound, the SODIUM [2] was 143.2 MEQ/L, the “TOTAL BILIRUBIN” value [2] was 0.2 mg/dL and the “TOTAL PROTEIN” value [2] was 5.8 G/DL. For the same compound, the “URIC ACID” value [2] was 1.3 mg/dL, the “ABSOLUTE BASOPHIL” value [3] was 0 CELLS/uL and the “ABSOLUTE EOSINOPHIL” value [3] was 0 CELLS/uL. The “ABSOLUTE LYMPHOCYTE” value [3] was 16113.33 CELLS/uL, the “ABSOLUTE MONOCYTE” value [3] was 104 CELLS/uL and the “ABSOLUTE SEGMENTED NEUTROPHIL” value [3] was 1216 CELLS/uL. The BASOPHIL [3] was 0%, the EOSINOPHIL [3] was 0% and the “ERYTHROCYTE COUNT” value [3] was 5.67 x10E6/uL. For the same compound, the HEMATOCRIT [3] was 35.07%, the HEMOGLOBIN [3] was 14.07 G/DL and the “LEUKOCYTE COUNT” value [3] was 17.43 x10E3/uL. The LYMPHOCYTE [3] was 92%, the “MEAN CORPUSCULAR HEMOGLOBIN” value [3] was 24.8 pg and the “MEAN CORPUSCULAR HEMOGLOBIN CONCENTRATION” value [3] was 40.1 G/DL. The “MEAN CORPUSCULAR VOLUME” value [3] was 61.83 fL, the MONOCYTE [3] was 0.67% and the NEUTROPHIL [3] was 7.33%. For the same compound, the “NUCLEATED RED BLOOD CELLS” value [3] was 0 /100WBC, the “PLATELET COUNT” value [3] was 1266.33 x10E3/uL and the “ALANINE AMINOTRANSFERASE” value [3] was 69 u/L. The ALBUMIN [3] was 3.97 G/DL, the “ALKALINE PHOSPHATASE” value [3] was 487 u/L and the “ASPARTATE AMINOTRANSFERASE” value [3] was 117 u/L. The “BLOOD UREA NITROGEN” value [3] was 13 mg/dL, the “CARBON DIOXIDE” value [3] was 29 mmol/L and the CHLORIDE [3] was 102.33 MEQ/L. For the same compound, the CHOLESTEROL [3] was 68.33 mg/dL, the “CREATINE PHOSPHOKINASE” value [3] was 365.33 u/L and the CREATININE [3] was 0.24 mg/dL. The GLUCOSE [3] was 140.67 mg/dL, the “LACTATE DEHYDROGENASE” value [3] was 544.67 u/L and the LIPASE [3] was 12.33 u/L. For the same compound, the PHOSPHORUS [3] was 11.13 mg/dL, the POTASSIUM [3] was 5.99 MEQ/L and the SODIUM [3] was 142.27 MEQ/L. The “TOTAL BILIRUBIN” value [3] was 0.23 mg/dL, the “TOTAL PROTEIN” value [3] was 5.47 G/DL and the “URIC ACID” value [3] was 1.4 mg/dL. For the same compound, the “ABSOLUTE BASOPHIL” value [4] was 0 CELLS/uL, the “ABSOLUTE EOSINOPHIL” value [4] was 0 CELLS/uL and the “ABSOLUTE LYMPHOCYTE” value [4] was 11610.33 CELLS/uL. The “ABSOLUTE MONOCYTE” value [4] was 237.67 CELLS/uL, the “ABSOLUTE SEGMENTED NEUTROPHIL” value [4] was 1485.33 CELLS/uL and the BASOPHIL [4] was 0%. The EOSINOPHIL [4] was 0%, the “ERYTHROCYTE COUNT” value [4] was 6.3 x10E6/uL and the HEMATOCRIT [4] was 38.7%. The HEMOGLOBIN [4] was 15.17 G/DL, the “LEUKOCYTE COUNT” value [4] was 13.33 x10E3/uL and the LYMPHOCYTE [4] was 87.33%. The “MEAN CORPUSCULAR HEMOGLOBIN” value [4] was 24.13 pg, the “MEAN CORPUSCULAR HEMOGLOBIN CONCENTRATION” value [4] was 39.23 G/DL and the “MEAN CORPUSCULAR VOLUME” value [4] was 61.5 fL. For the same compound, the MONOCYTE [4] was 1.67%, the NEUTROPHIL [4] was 11% and the “NUCLEATED RED BLOOD CELLS” value [4] was 0 /100WBC. For the same compound, the “PLATELET COUNT” value [4] was 1093.67 x10E3/uL, the “ALANINE AMINOTRANSFERASE” value [4] was 36.67 u/L and the ALBUMIN [4] was 4.27 G/DL. The “ALKALINE PHOSPHATASE” value [4] was 295.33 u/L, the “ASPARTATE AMINOTRANSFERASE” value [4] was 110.67 u/L and the “BLOOD UREA NITROGEN” value [4] was 15.33 mg/dL. The “CARBON DIOXIDE” value [4] was 28.67 mmol/L, the CHLORIDE [4] was 104.67 MEQ/L and the CHOLESTEROL [4] was 55.67 mg/dL. The “CREATINE PHOSPHOKINASE” value [4] was 254 u/L, the CREATININE [4] was 0.21 mg/dL and the GLUCOSE [4] was 151.33 mg/dL. The “LACTATE DEHYDROGENASE” value [4] was 321.67 u/L, the LIPASE [4] was 10.67 u/L and the PHOSPHORUS [4] was 9.9 mg/dL. The POTASSIUM [4] was 4.59 MEQ/L, the SODIUM [4] was 146.27 MEQ/L and the “TOTAL BILIRUBIN” value [4] was 0.1 mg/dL. For the same compound, the “TOTAL PROTEIN” value [4] was 5.77 G/DL and the “URIC ACID” value [4] was 1.13 mg/dL.
